# According to publication PMC10871713 (Materials today. Nano, 2023):
# Positions of bridges follow the written chain, without caps; N, C: chain ends. No end group written: not given here.
# Key:
# [1] = test system: streptavidin; conditions: AFM; streptavidin/biotin partners (Beebe et al.) ref 40, 41; cited from earlier work
# [2] = cyclic peptide; cited from earlier work
# [3] = test system: adipose-derived stem cells (ADSCs); assay: ADSC attachment and spreading on protein crystals; assay type: cell-based, human; conditions: protein crystal surface passivated by covalent attachment of PEG; data not shown
# [4] = test system: CJ^OPT protein crystal; parameters: species or system Campylobacter jejuni
molecule,measurement,setting,value
O=C(O)CCCC[C@@H]1SC[C@@H]2NC(=O)N[C@@H]21 [biotin],ligand-receptor bond-rupture force,[1],442 ± 17 pN
CWDDGWLC (disulfide 1-8 (inferred)) [IntP],binding to RGD,[2],binds RGD
poly(ethylene glycol) [PEG],cell adhesion,[3],no cell adhesion
same,adsorption of PEG from solution by crystals,[4],adsorbed by the crystals from solution within minutes
